Laboratory results reported in ChEMBL document CHEMBL1154822, “Synthesis and antiproliferative activity of 7-azaindirubin-3'-oxime, a 7-aza isostere of the natural indirubin pharmacophore” (J Nat Prod, 2009).

Assays:
Assay type in all cases: functional
[1] = system: HL-60(TB); experiment: Cytotoxicity against human HL-60(TB) cells assessed as cell growth at 1 uM after 1 to 11 days by MTT assay; details: read-out: Activity
[2] = Cytotoxicity against human Hs 578T cells assessed as cell growth at 100 uM after 1 to 11 days by MTT assay; details: read-out: Activity
[3] = system: UACC-257; experiment: Cytotoxicity against human UACC257 cells assessed as cell growth at 1 uM after 1 to 11 days by MTT assay; details: read-out: Activity
[4] = system: SK-OV-3; experiment: Cytotoxicity against human SKOV3 cells after 1 to 11 days by MTT assay
[5] = system: NCI-H322M; experiment: Cytotoxicity against human NCI-H322M cells assessed as cell growth at 10 uM after 1 to 11 days by MTT assay; details: read-out: Activity
[6] = system: SNB-19; experiment: Cytotoxicity against human SNB19 cells assessed as cell growth at 10 uM after 1 to 11 days by MTT assay; details: read-out: Activity
[7] = system: MDA-MB-468; experiment: Cytotoxicity against human MDA-MB-468 cells assessed as cell growth at 0.1 uM after 1 to 11 days by MTT assay; details: read-out: Activity
[8] = system: NCI-H23; experiment: Cytotoxicity against human NCI-H23 cells assessed as cell growth at 0.1 uM after 1 to 11 days by MTT assay; details: read-out: Activity
[9] = system: SW-620; experiment: Cytotoxicity against human SW620 cells assessed as cell growth at 10 uM after 1 to 11 days by MTT assay; details: read-out: Activity
[10] = system: K562; experiment: Cytotoxicity against human K562 cells assessed as cell growth at 10 uM after 1 to 11 days by MTT assay; details: read-out: Activity
[11] = system: LOX IMVI; experiment: Cytotoxicity against human LOXIMVI cells assessed as cell growth at 100 uM after 1 to 11 days by MTT assay; details: read-out: Activity
[12] = system: SR; experiment: Cytotoxicity against human SR cells assessed as cell growth at 0.1 uM after 1 to 11 days by MTT assay; details: read-out: Activity
[13] = system: SF-268; experiment: Cytotoxicity against human SF268 cells assessed as cell growth at 10 uM after 1 to 11 days by MTT assay; details: read-out: Activity
[14] = system: SN12C; experiment: Cytotoxicity against human SN12C cells after 1 to 11 days by MTT assay
[15] = system: M14; experiment: Cytotoxicity against human M14 cells after 1 to 11 days by MTT assay
[16] = system: SNB-75; experiment: Cytotoxicity against human SNB75 cells assessed as cell growth at 10 uM after 1 to 11 days by MTT assay; details: read-out: Activity
[17] = system: SF-268; experiment: Cytotoxicity against human SF268 cells assessed as cell growth at 1 mM after 1 to 11 days by MTT assay; details: read-out: Activity
[18] = system: SF-539; experiment: Cytotoxicity against human SF539 cells assessed as cell growth at 10 uM after 1 to 11 days by MTT assay; details: read-out: Activity
[19] = system: DU-145; experiment: Cytotoxicity against human DU145 cells after 1 to 11 days by MTT assay
[20] = system: BT-549; experiment: Cytotoxicity against human BT549 cells assessed as cell growth at 1 mM after 1 to 11 days by MTT assay; details: read-out: Activity
[21] = system: SK-MEL-5; experiment: Cytotoxicity against human SK-MEL-5 cells assessed as cell growth at 1 uM after 1 to 11 days by MTT assay; details: read-out: Activity
[22] = system: MDA-MB-468; experiment: Cytotoxicity against human MDA-MB-468 cells assessed as cell growth at 100 uM after 1 to 11 days by MTT assay; details: read-out: Activity
[23] = system: MCF7; experiment: Cytotoxicity against human MCF7 cells after 1 to 11 days by MTT assay
[24] = system: BT-549; experiment: Cytotoxicity against human BT549 cells after 1 to 11 days by MTT assay
[25] = system: HT-29; experiment: Cytotoxicity against human HT-29 cells assessed as cell growth at 1 mM after 1 to 11 days by MTT assay; details: read-out: Activity
[26] = system: K562; experiment: Cytotoxicity against human K562 cells after 1 to 11 days by MTT assay
[27] = system: RXF 393; experiment: Cytotoxicity against human […] cells assessed as cell growth at 10 uM after 1 to 11 days by MTT assay; details: read-out: Activity
[28] = system: NCI-H460; experiment: Cytotoxicity against human NCI-H460 cells assessed as cell growth at 1 uM after 1 to 11 days by MTT assay; details: read-out: Activity
[29] = system: HCT-116; experiment: Cytotoxicity against human HCT116 cells assessed as cell growth at 100 uM after 1 to 11 days by MTT assay; details: read-out: Activity
[30] = Cytotoxicity against human Hs 578T cells assessed as cell growth at 10 uM after 1 to 11 days by MTT assay; details: read-out: Activity
[31] = system: NCI-H460; experiment: Cytotoxicity against human NCI-H460 cells assessed as cell growth at 10 uM after 1 to 11 days by MTT assay; details: read-out: Activity
[32] = system: NCI-H226; experiment: Cytotoxicity against human NCI-H226 cells assessed as cell growth at 100 uM after 1 to 11 days by MTT assay; details: read-out: Activity
[33] = system: SNB-19; experiment: Cytotoxicity against human SNB19 cells assessed as cell growth at 1 uM after 1 to 11 days by MTT assay; details: read-out: Activity
[34] = system: HCT-15; experiment: Cytotoxicity against human HCT15 cells assessed as cell growth at 100 uM after 1 to 11 days by MTT assay; details: read-out: Activity
[35] = system: 786-0; experiment: Cytotoxicity against human 786-0 cells after 1 to 11 days by MTT assay
[36] = system: HOP-62; experiment: Cytotoxicity against human HOP62 cells assessed as cell growth at 1 uM after 1 to 11 days by MTT assay; details: read-out: Activity
[37] = system: MCF7; experiment: Cytotoxicity against human MCF7 cells assessed as cell growth at 10 uM after 1 to 11 days by MTT assay; details: read-out: Activity
[38] = system: RPMI-8226; experiment: Cytotoxicity against human RPMI8226 cells assessed as cell growth at 0.1 uM after 1 to 11 days by MTT assay; details: read-out: Activity
[39] = system: MOLT-4; experiment: Cytotoxicity against human MOLT4 cells assessed as cell growth at 1 mM after 1 to 11 days by MTT assay; details: read-out: Activity
[40] = system: U-251; experiment: Cytotoxicity against human U251 cells assessed as cell growth at 1 mM after 1 to 11 days by MTT assay; details: read-out: Activity
[41] = system: LOX IMVI; experiment: Cytotoxicity against human LOXIMVI cells assessed as cell growth at 0.1 uM after 1 to 11 days by MTT assay; details: read-out: Activity
[42] = system: HCT-15; experiment: Cytotoxicity against human HCT15 cells after 1 to 11 days by MTT assay
[43] = system: HOP-62; experiment: Cytotoxicity against human HOP62 cells after 1 to 11 days by MTT assay
[44] = read-out: LC50 (the source's name)

O=C1Nc2ncccc2/C1=C1/Nc2ccccc2/C1=N\O
growth at 1 µM [1]: 99% | growth at 100 µM [2]: 4% | growth at 1 µM [3]: 92% | GI50 [4]: 1.79 µM | CC50 [4, 44]: > 100 µM | growth at 10 µM [5]: 56% | growth at 10 µM [6]: 94% | growth at 0.1 µM [7]: 77% | growth at 0.1 µM [8]: 96% | growth at 10 µM [9]: 98% | growth at 10 µM [10]: 66% | growth at 100 µM [11]: 36% | growth at 0.1 µM [12]: 109% | growth at 10 µM [13]: 91% | GI50 [14]: 4.98 µM | TGI [14]: > 100 µM | CC50 [14, 44]: > 100 µM | GI50 [15]: 7.95 µM | TGI [15]: > 100 µM | CC50 [15, 44]: > 100 µM | growth at 10 µM [16]: 86% | growth at 1000 µM [17]: 54% | growth at 10 µM [18]: 87% | GI50 [19]: 5.69 µM | TGI [19]: > 100 µM | CC50 [19, 44]: > 100 µM | growth at 1000 µM [20]: 30% | growth at 1 µM [21]: 98% | growth at 100 µM [22]: 18% | GI50 [23]: 15.9 µM | TGI [23]: > 100 µM | CC50 [23, 44]: > 100 µM | GI50 [24]: 5.41 µM | TGI [24]: > 100 µM | CC50 [24, 44]: > 100 µM | growth at 1000 µM [25]: 48% | GI50 [26]: 3.84 µM | TGI [26]: > 100 µM | CC50 [26, 44]: > 100 µM | growth at 10 µM [27]: 55% | growth at 1 µM [28]: 105% | growth at 100 µM [29]: 46% | growth at 10 µM [30]: 78% | growth at 10 µM [31]: 97% | growth at 100 µM [32]: -5% | growth at 1 µM [33]: 97% | growth at 100 µM [34]: 27% | GI50 [35]: 7.46 µM | CC50 [35, 44]: > 100 µM | growth at 1 µM [36]: 100% | growth at 10 µM [37]: 86% | growth at 0.1 µM [38]: 95% | growth at 1000 µM [39]: 18% | growth at 1000 µM [40]: 68% | growth at 0.1 µM [41]: 98% | GI50 [42]: 3.67 µM | TGI [42]: > 100 µM | CC50 [42, 44]: > 100 µM | GI50 [43]: > 100 µM | TGI [43]: > 100 µM | CC50 [43, 44]: > 100 µM
